{"source": "the NIST ThermoML archive (doi:10.1016/j.jct.2013.10.025)", "details": "298.15 K, 101.33 kPa, Liquid; for viscosity: Capillary tube (Ostwald / Ubbelohde) method; for speed of sound: Sing-around technique in a fixed-path interferometer; for mass density: Vibrating tube method", "note": "± gives the expanded uncertainty stated by the source."}
{"smiles": "C1CCOC1", "note": "[tetrahydrofuran]", "values": [{"measurement": "viscosity", "result": 0.474, "unit": "mPa·s"}, {"measurement": "speed of sound", "result": "1280.1 ± 1.5", "unit": "m/s"}, {"measurement": "mass density", "result": "882.15 ± 0.23", "unit": "kg/m3"}]}
{"smiles": "CCCCCCO", "note": "[hexan-1-ol]", "values": [{"measurement": "viscosity", "result": "4.436 ± 0.36", "unit": "mPa·s"}, {"measurement": "speed of sound", "result": "1303.5 ± 1.5", "unit": "m/s"}, {"measurement": "mass density", "result": "815.295 ± 0.24", "unit": "kg/m3"}]}
{"smiles": "CCCCCCCCCCO", "note": "[decan-1-ol]", "values": [{"measurement": "viscosity", "result": "10.61 ± 0.37", "unit": "mPa·s"}, {"measurement": "speed of sound", "result": "1379.3 ± 1.6", "unit": "m/s"}, {"measurement": "mass density", "result": "826.407 ± 0.24", "unit": "kg/m3"}]}
{"smiles": "CCCCCCCCO", "note": "[octan-1-ol]", "values": [{"measurement": "viscosity", "result": "7.446 ± 0.36", "unit": "mPa·s"}, {"measurement": "speed of sound", "result": "1347.9 ± 1.5", "unit": "m/s"}, {"measurement": "mass density", "result": "821.837 ± 0.24", "unit": "kg/m3"}]}
